Experimental data reported in publication PMC6251811 (Acta Pharmaceutica Sinica. B, 2018).

Columns and labels:
STAT3 phosphorylation = conditions: concentrations below 10 μmol/L; cited from earlier work
[1] = test system: type-I interferon signaling pathway; test: SEAP reporter gene assay in HEK-Blue IFNα/β cells stimulated with IFN-α2a; assay type: cell-based; conditions: Homo sapiens
Phospho-STAT1 (Tyr701) [2] = test: Western blot of STAT1 phosphorylation in HEK-Blue IFNα/β cells after IFN-α2a; assay type: cell-based, human; conditions: niclosamide 10 μmol/L (Fig. 5B, Fig. S2)
Phospho-STAT1 (Tyr701) [3] = test: Western blot of STAT1 phosphorylation in SH-SY5Y cells after IFN-α2a; assay type: cell-based, human; conditions: niclosamide 10 μmol/L (Fig. 6B)
IRF7 mRNA = IRF7 mRNA quantitative PCR in SH-SY5Y cells; assay type: cell-based, human; conditions: positive control niclosamide, IFN-α2a 1 h

Compound: O=C(Nc1ccc([N+](=O)[O-])cc1Cl)c1cc(Cl)ccc1O [niclosamide, Niclosamide]
- effect on STAT phosphorylation (STAT3 phosphorylation): only inhibit STAT3 phosphorylation
- IC50 [1]: 0.37 µM
- effect on STAT1 phosphorylation (Phospho-STAT1 (Tyr701) [2]): also inhibited STAT1 phosphorylation
- effect on STAT1 phosphorylation (Phospho-STAT1 (Tyr701) [3]): also inhibited STAT1 phosphorylation
- IRF7 level after compound plus IFN-α2a (IRF7 mRNA): 0.84±0.07 folds
